Here are results for 20 molecules from patent publication US20130303518A1, “Methods of Inhibiting the Catalytic Activity of a Protein Kinase and of Treating a Protein Kinase Related Disorder” (JIANGSU HANSOH PHARMACEUTICAL CO., LTD., priority 2007, published 2013).

For data set [1], the target named is T1, recombinant human VEGF-R2 (Homo sapiens, UniProt P35968).
T1 construct: purchased Cell signaling technology #7787
Description: VEGFR-2 kinase assay (ELISA, time-resolved fluorescence). Conditions: recombinant human VEGF-R2, 10 μM ATP, 25° C., 30 minutes; read-out: IC50 (VEGFR-2/bio). Type of data set: biochemical. How it is done:
This assay is used to measure the in vitro kinase activity of recombinant human VEGF-R2 in an ELISA assay.
• a. […] Stop Buffer: 50 mM EDTA, pH 8.0. • d.
The following protocol was used: • 1. The test compound was diluted with DMSO to the desired final assay concentration. […] 6 μM substrate peptide (Tyr87) was diluted with dH2O (1:1), 15 μl was added to every assay. • 3. VEGFR-2 enzyme was immediately transferred from −80° C. to ice, and the enzyme was allowed to thaw on ice. • 4. 2.2 μg VEGFR-2 enzyme was taken to the enzyme tube. • 5. […] 0.75 ml of DTT/Kinase buffer was transferred to each enzyme tube to prepare 4× reaction cocktail, and 7.5 μl 4× reaction cocktail was added to every assay. • 7. […] The reaction tube was incubated at 25° C. for 30 minutes. • 9. 30 μl/assay stop buffer (50 mM EDTA, pH 8.0) was added to stop the reaction. • 10. 25 μl of each reaction and 75 μl dH2O/well was transferred to a 96-well streptavidin coated plate, with shaking at room temperature for 60 minutes. • 11. Each well was washed three times with 200 μl PBS-T buffer. Plate was patted on paper towel to remove excess liquid. • 12. […] The reaction tube was incubated, with shaking at room temperature for 60 minutes. • 14. Washing was carried out as described above in step 11. • 15. Europium labeled anti-mouse IgG was diluted 1:500 in PBS-T buffer with 1% BSA, 100 μl diluted antibody was added to each well. • 16. The reaction tube was incubated, with shaking at room temperature for 30 minutes. • 17. Each well was washed five times with 200 μl PBS-T buffer. Plate was patted on paper towel to remove excess liquid. • 18. 100 μl/well DELFIA® Enhancement Solution was added. • 19. The reaction tube was incubated, with shaking at room temperature for 5 minutes. • 20.
The IC50 value can be derived from the IRs of compounds at different concentration gradients.

A further data set deals with HUVEC cell. Description: Inhibition of cell proliferation assay (SRB) on VEGFR high expressing HUVEC cells. Conditions: Homo sapiens, 72 h, read-out: IC50 (VEGFR/HUVEC).
The next data set concerns HT-29 human colon cancer. Briefly: Therapeutic effects against xenografts of HT-29 human colon cancer in nude mice. Type of data set: in vivo. On the procedure: The therapeutic effects of Example 63 against xenografts of HT-29 human colon cancer in nude mice were estimated.
The therapeutic effects of the compound of Example 63 against xenografts of HT-29 human colon cancer in nude mice were estimated.
Preparation method: the compound of Example 63 was prepared to corresponding concentration with distilled water.
Six to seven-week-old BALB/cA-nude female mice was purchased from Slaccas Experimental Animal. Certificate No.: SCXK(Shanghai) 2003˜0003. Raising Conditions: SPF level.
Nude mice were hypodermic inoculated HT-29 human colon cancer cell. After tumors grew to 100-300 mm^3, mice were randomly divided into teams (d0). The volume of tumors and weigh of the mice were measured for 2-3 times per week. The calculation formula of the volume of tumor (V) is: V=½×a×b^2, a: length of tumor, b: width of tumor.
Background: In xenograft studies the graft and the host belong to different species.

“Also recorded” adds a separate entry of the source. Marks after values point to notes of the source that are not given here.

T1 sequence (P35968 20-1356): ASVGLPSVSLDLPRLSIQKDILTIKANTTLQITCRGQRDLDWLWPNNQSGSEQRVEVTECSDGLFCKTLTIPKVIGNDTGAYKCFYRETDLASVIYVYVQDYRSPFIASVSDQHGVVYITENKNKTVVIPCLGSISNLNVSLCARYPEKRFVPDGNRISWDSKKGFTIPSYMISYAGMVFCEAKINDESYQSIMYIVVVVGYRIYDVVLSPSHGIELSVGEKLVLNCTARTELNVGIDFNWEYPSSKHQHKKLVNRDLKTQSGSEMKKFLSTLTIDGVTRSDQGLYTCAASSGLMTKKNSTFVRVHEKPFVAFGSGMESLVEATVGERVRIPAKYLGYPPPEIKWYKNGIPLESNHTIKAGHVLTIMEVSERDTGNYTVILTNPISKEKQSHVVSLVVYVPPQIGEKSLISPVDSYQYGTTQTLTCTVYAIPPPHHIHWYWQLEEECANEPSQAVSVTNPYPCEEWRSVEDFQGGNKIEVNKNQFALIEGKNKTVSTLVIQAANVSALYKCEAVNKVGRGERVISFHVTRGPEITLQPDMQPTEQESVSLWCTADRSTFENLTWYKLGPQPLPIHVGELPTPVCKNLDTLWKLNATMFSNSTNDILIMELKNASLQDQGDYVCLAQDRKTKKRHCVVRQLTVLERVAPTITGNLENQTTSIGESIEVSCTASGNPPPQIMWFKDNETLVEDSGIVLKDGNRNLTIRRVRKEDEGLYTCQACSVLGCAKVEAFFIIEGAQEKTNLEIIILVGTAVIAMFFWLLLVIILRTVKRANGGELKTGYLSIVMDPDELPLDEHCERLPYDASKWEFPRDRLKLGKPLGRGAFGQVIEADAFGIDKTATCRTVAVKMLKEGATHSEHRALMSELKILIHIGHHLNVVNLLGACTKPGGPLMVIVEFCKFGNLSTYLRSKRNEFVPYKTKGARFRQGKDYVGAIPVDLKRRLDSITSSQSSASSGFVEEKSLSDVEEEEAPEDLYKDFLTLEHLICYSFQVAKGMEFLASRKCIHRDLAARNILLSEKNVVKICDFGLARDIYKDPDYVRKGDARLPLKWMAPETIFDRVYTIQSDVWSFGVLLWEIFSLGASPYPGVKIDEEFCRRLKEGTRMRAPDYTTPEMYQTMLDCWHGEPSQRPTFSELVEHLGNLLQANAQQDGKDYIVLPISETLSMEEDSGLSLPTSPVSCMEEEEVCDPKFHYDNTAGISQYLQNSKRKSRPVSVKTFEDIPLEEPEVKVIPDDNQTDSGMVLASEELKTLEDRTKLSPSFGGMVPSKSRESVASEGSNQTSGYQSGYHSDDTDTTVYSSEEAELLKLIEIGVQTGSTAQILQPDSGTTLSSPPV
Description for HUVEC cell: The following in vitro assay may be used to determine the level of activity and effect of different compounds of the present invention on the proliferation inhibition (cell toxic) of endothelium growth factor receptor (VEGFR) high expressing Homo sapiens cancer cell-HUVEC cell.
Then the cells are put back to the incubator and cultured for continuous 72 hours. 72 hours later, the cell exposed to compounds and control cell are assayed for their proliferation using Sulforhodamine B (SRB) method.
HUVEC cells were grown in growth media (DMEM/F12, supplemented with 10% FBS) in 100 mm corning culture plates till confluence at 37° C., 5% CO2. • 2. HUVEC cells were washed in 100 mm plates with FBS, then the cells were harvested by trypsinization and seeded to corning 96-well cell culture plates at concentration of 50000 cells/ml, leaving 6 wells/each plate empty as background. • 3. […] The compounds stock solution was prepared, using DMSO to solve candidate compounds to a concentration of 20 mM. Then DMSO was used to dilute the stock solution to a serious concentration of tested compounds solution (namely, 2 mM, 1 mM, 0.2 mM, 20 μM, 2 μM, 0.2 μM). • 5. […] Each DMSO serial concentration compound solution was diluted by 20 times with culture medium by adding 5 μl DMSO compound solution to 95 μl culture medium, then mixed well by vortex. This promised that the DMSO concentration at that the HUVEC cell will exposed to will not surpass 0.5%. • 6. […] Each well was added 180 μl medium, then 20 μl medium solution of tested compounds prepared at step 5 was added to each well. For negative control group cell, 20 μl culture medium containing 0.5% pure DMSO was added. So, HUVEC cells were exposed to each tested compound at a serial final concentration of 100 μM, 10 μM, 5 μM, 1 μM, 0.1 μM, 0.01 μM, and 0.001 μM. • 7. The culture plates were put back to incubator, and cultured for 72 hours at 37° C., 5% CO2. • 8. 72 hours later, cultures were removed from incubator into sterile work area. • 9. The fixative (50% Trichloroacetic Acid-TCA) was prepared by adding reagent grade water to the TCA, fixing the cells by gently layering 50 μl of cold TCA solution on top of the growth medium. • 10. The plates was incubated for 1 hour at 4° C. and then rinsed with water several times to remove TCA, serum proteins, etc. Plates were air dried and stored until use. Bland background optical density was measured in wells incubated with growth medium without cells. • 11. 0.4% Sulforhodamine B solution was prepared by using 10% acetic acid solution. 50 μl sulforhodamine B solution was added to each well of 96-well plates. • 12. The cells were allowed to stain for 30 minutes. • 13. The wash solution of 10% acetic acid was prepared. At the end of the staining period, the stain was removed and the cells were rinsed quickly with 1% acetic acid. Repeat until unincorporated dye was removed. Wash times were kept to a minimum to reduce desorption of protein-bound dye. After being rinsed, the cultures were air dried. • 14. […] Then cultures were allowed to stand for 5 minutes at room temperature, and the mixing of the dye was enhanced by gentle stirring in a gyratory shaker. • 15. The absorbance was measured by spectrophotometry at a wavelength of 565 nm. The background absorbance of 96-well plates at 690 nm was measured and subtracted from the measurement at 565 nm. • 16. The inhibition rate (IR) was calculated as follows:

With `CCN(CC)CCN1CCCc2[nH]c(/C=C3\C(=O)Nc4ccc(Cl)cc43)c(C)c2C1=O` [Example 2], the IC50 in data set [1] came to 21 nM; in the data set on HUVEC cell, 288 nM.

Take `CCN(CC)CCN1CCCc2[nH]c(/C=C3\C(=O)Nc4cc(NCc5ccc(F)cc5)c(F)cc43)c(C)c2C1=O` [Example 3, (Z)-5-(2-Diethylamino-ethyl)-2-[5-fluoro-6-(4-fluoro-benzylamino)-2-oxo-1,2-dihydro-indol-3-ylidenemethyl]-3-methyl-5,6,7,8-tetrahydro-1H-pyrrolo[3,2-c]azepin-4-one]: the IC50 in data set [1] was found to be 280 nM; with HUVEC cell it was 100 nM.

Regarding `CCN(CC)CCN1CCCc2[nH]c(/C=C3\C(=O)Nc4c(Br)cc(F)cc43)c(C)c2C1=O` [Example 4, (Z)-2-(7-Bromo-5-fluoro-2-oxo-1,2-dihydro-indol-3-ylidenemethyl)-5-(2-diethylamino-ethyl)-3-methyl-5,6,7,8-tetrahydro-1H-pyrrolo[3,2-c]azepin-4-one], the IC50 in data set [1] turned out to be 41 nM; in the data set with HUVEC cell, 404 nM.

As for `CCN(CC)CCN1CCCc2[nH]c(/C=C3\C(=O)Nc4ccc(Br)cc43)c(C)c2C1=O` [Example 5], the IC50 in data set [1] was 8.5 nM; in the data set on HUVEC cell, 100 nM.

Turning to `CCN(CC)CCN1CCCc2[nH]c(/C=C3\C(=O)Nc4cccc(-c5cccc(F)c5F)c43)c(C)c2C1=O` [Example 6, (Z)-5-(2-Diethylamino-ethyl)-2-[4-(2,3-difluoro-phenyl)-2-oxo-1,2-dihydro-indol-3-ylidenemethyl]-3-methyl-5,6,7,8-tetrahydro-1H-pyrrolo[3,2-c]azepin-4-one], the IC50 in data set [1] amounted to 23 nM; in the data set with HUVEC cell it was 280 nM.

`CCN(CC)CCN1CCCc2[nH]c(/C=C3\C(=O)Nc4cc(NC(=O)COC)c(F)cc43)c(C)c2C1=O` [Example 7, (Z)—N-{3-[5-(2-Diethylamino-ethyl)-3-methyl-4-oxo-1,4,5,6,7,8-hexahydro-pyrrolo[3,2-c]azepin-2-ylmethylene]-5-fluoro-2-oxo-2,3-dihydro-1H-indol-6-yl}-2-methoxy-acetamide]: the IC50 in data set [1] worked out at 690 nM.

`CCN(CC)CCN1CCCc2[nH]c(/C=C3\C(=O)Nc4cc(NC(=O)[C@H](C)O)c(F)cc43)c(C)c2C1=O` [Example 8, (S,Z)—N-{3-[5-(2-Diethylamino-ethyl)-3-methyl-4-oxo-1,4,5,6,7,8-hexahydro-pyrrolo[3,2-c]azepin-2-ylmethylene]-5-fluoro-2-oxo-2,3-dihydro-1H-indol-6-yl}-2-hydroxy-propionamide]: the figures for the IC50 (in data set [1]; in the data set with HUVEC cell) were 115 nM and 308 nM, respectively.

On to `CCN(CC)CCN1CCCc2[nH]c(/C=C3\C(=O)Nc4cc(NC(=O)C(C)(C)O)c(F)cc43)c(C)c2C1=O` [Example 9, (Z)—N-{3-[5-(2-Diethylamino-ethyl)-3-methyl-4-oxo-1,4,5,6,7,8-hexahydro-pyrrolo[3,2-c]azepin-2-ylmethylene]-5-fluoro-2-oxo-2,3-dihydro-1H-indol-6-yl}-2-hydroxy-2-methyl-propionamide], for which the results for the IC50 (in data set [1]; in the data set with HUVEC cell) were 490 nM and 68 nM, respectively.

In the case of `Cc1c(/C=C2\C(=O)Nc3ccc(Cl)cc32)[nH]c2c1C(=O)N(CCN1CCOCC1)CCC2` [Example 10], the values for the IC50 (in data set [1]; with HUVEC cell) were 14 nM and 123 nM, respectively.

In the case of `Cc1c(/C=C2\C(=O)Nc3cccc(-c4cccc(F)c4F)c32)[nH]c2c1C(=O)N(CCN1CCOCC1)CCC2` [Example 12, (Z)-2-[4-(2,3-Difluoro-phenyl)-2-oxo-1,2-dihydro-indol-3-ylidenemethyl]-3-methyl-5-(2-morpholin-4-yl-ethyl)-5,6,7,8-tetrahydro-1H-pyrrolo[3,2-c]azepin-4-one], the IC50 in data set [1] came to 1 nM; in the data set with HUVEC cell, 300 nM.

For `CCN(CC)CCN1CCCc2[nH]c(/C=C3\C(=O)Nc4cccc(Br)c43)c(C)c2C1=O` [Example 13, (Z)-2-(4-Bromo-2-oxo-1,2-dihydro-indol-3-ylidenemethyl)-5-(2-diethylamino-ethyl)-3-methyl-5,6,7,8-tetrahydro-1H-pyrrolo[3,2-c]azepin-4-one], the IC50 in data set [1] was 3 nM; in the data set on HUVEC cell, 804 nM.

`CCN(CC)CCN1CCCc2[nH]c(/C=C3\C(=O)Nc4ncc(Br)cc43)c(C)c2C1=O` [Example 14]: the IC50 in data set [1] was found to be 4 nM; in the data set on HUVEC cell, 457 nM.

For `CCN(CC)CCN1CCCc2[nH]c(/C=C3\C(=O)Nc4cc(OC)ccc43)c(C)c2C1=O` [Example 15, (Z)-5-(2-Diethylamino-ethyl)-2-(6-methoxy-2-oxo-1,2-dihydro-indol-3-ylidenemethyl)-3-methyl-5,6,7,8-tetrahydro-1H-pyrrolo[3,2-c]azepin-4-one], the IC50 in data set [1] was determined as 2 nM; with HUVEC cell it was 1200 nM.

For `CCN(CC)CCN1CCCc2[nH]c(/C=C3\C(=O)Nc4cccc(C)c43)c(C)c2C1=O` [Example 16, (Z)-5-(2-Diethylamino-ethyl)-3-methyl-2-(4-methyl-2-oxo-1,2-dihydro-indol-3-ylidenemethyl)-5,6,7,8-tetrahydro-1H-pyrrolo[3,2-c]azepin-4-one], the IC50 in data set [1] is 1.3 nM; with HUVEC cell it was 210 nM.

Turning to `CCN(CC)CCN1CCCc2[nH]c(/C=C3\C(=O)Nc4cccc(CCO)c43)c(C)c2C1=O` [Example 17, (Z)-5-(2-Diethylamino-ethyl)-2-[4-(2-hydroxy-ethyl)-2-oxo-1,2-dihydro-indol-3-ylidenemethyl]-3-methyl-5,6,7,8-tetrahydro-1H-pyrrolo[3,2-c]azepin-4-one], the results for the IC50 (in data set [1]; in the data set with HUVEC cell) were 1 nM and 129 nM, respectively.

Take `COCC(=O)Nc1cc2c(cc1F)/C(=C/c1[nH]c3c(c1C)C(=O)N(CCN1CCOCC1)CCC3)C(=O)N2` [Example 18, (Z)—N-{5-Fluoro-3-[3-methyl-5-(2-morpholin-4-yl-ethyl)-4-oxo-1,4,5,6,7,8-hexahydro-pyrrolo[3,2-c]azepin-2-ylmethylene]-2-oxo-2,3-dihydro-1H-indol-6-yl}-2-methoxy-acetamide]: the IC50 in data set [1] is 10 nM.

Regarding `Cc1c(/C=C2\C(=O)Nc3cc(NCc4ccc(F)cc4)c(F)cc32)[nH]c2c1C(=O)N(CCN1CCOCC1)CCC2` [Example 19, (Z)-2-[5-Fluoro-6-(4-fluoro-benzylamino)-2-oxo-1,2-dihydro-indol-3-ylidenemethyl]-3-methyl-5-(2-morpholin-4-yl-ethyl)-5,6,7,8-tetrahydro-1H-pyrrolo[3,2-c]azepin-4-one], the IC50 is 12 nM in data set [1] and 146 nM in the data set on HUVEC cell.

With `Cc1c(/C=C2\C(=O)Nc3c(NC=O)cc(F)cc32)[nH]c2c1C(=O)N(CCN1CCOCC1)CCC2` [Example 20, (Z)—N-{5-Fluoro-3-[3-methyl-5-(2-morpholin-4-yl-ethyl)-4-oxo-1,4,5,6,7,8-hexahydro-pyrrolo[3,2-c]azepin-2-ylmethylene]-2-oxo-2,3-dihydro-1H-indol-7-yl}-formamide], the IC50 in data set [1] stood at 72 nM.

Take `Cc1c(/C=C2\C(=O)Nc3cc(NC(=O)[C@H](C)O)c(F)cc32)[nH]c2c1C(=O)N(CCN1CCOCC1)CCC2` [Example 21, (S,Z)—N-{5-Fluoro-3-[3-methyl-5-(2-morpholin-4-yl-ethyl)-4-oxo-1,4,5,6,7,8-hexahydro-pyrrolo[3,2-c]azepin-2-ylmethylene]-2-oxo-2,3-dihydro-1H-indol-6-yl}-2-hydroxy-propionamide]: in data set [1], the IC50 turned out to be 160 nM.

With `CCN(CC)CCN1CCCc2[nH]c(/C=C3\C(=O)Nc4ccc(F)cc43)c(C)c2C1=O` [Example 63, malate], the “T/C (%)” value with HT-29 human colon cancer (40 mg/kg p.o d0~12, P < 0.01 vs control) is reported as 31.5* %. Moreover, the “RTV (relative tumor volume)” value in the data set on HT-29 human colon cancer (X ± SD, 40 mg/kg p.o d0~12, dn vs d0) was found to be 0.80 ± 0.42. In addition, in the data set with HT-29 human colon cancer (X ± SD, 40 mg/kg p.o d0~12, dn: the 13th day after the first dosage), the “TV (volume of tumor) dn” value is given as 300 ± 154 mm^3. Besides, in the data set with HT-29 human colon cancer (continuous oral dosing, nude mice, malate), the “tolerance of mice to the compound (in words)” value is listed as “well tolerant; also recorded: well tolerant to the compound without obvious toxicity”.
